The text below walks through data of patent US20220362174A1, “Use of R-enantiomer Beta2-agonists for prevent and treatment of pulmonary inflammation and inflammatory remodeling for reduced adverse effects” (priority 2019, published 2022).

The subject of assay [1] is LPS-induced RAW264.7 cells. Nature of the assay: Intracellular ROS (DCFH-DA). The assay is classed as cell-based. As to the method:
(§1) Macrophages were treated without or with (R)/(S)-salbutamol for 1 h prior to LPS stimulation and subsequently incubated for 12 h. […] The fluorescence of the oxidized product (2′,7′-dichlorofluorescein, DCF) was assessed using an LSM710 Laser Scanning Confocal Microscope (Carl Zeiss, Jena, Germany). The concentration of NO in the culture supernatant was measured by assaying the concentrations of nitrite (a stable NO breakdown product) using the Griess assay (Beyotime, Shanghai, China), according to the manufacturer's instructions. The intracellular NO level was detected using the NO-sensitive fluorescence probe DAF-FM DA (Sigma, St. Louis, Mo., USA) (24). Cells were labeled with DAF-FM DA (10 μM) at 37° C. for 30 min and were gently washed three times with PBS. Fluorescence was detected using a LSM710 Laser Scanning Confocal Microscope (Scale bars, 100 μm) (Carl Zeiss, Jena, Germany).
LPS can promote cell apoptosis through mitochondrial dysfunction, and mitochondria are the major source of ROS.

Another assay has as its system OVA induced asthma mice. Nature of the assay: Combination therapy of ipratropium with RS-, R- and S-salbutamol: airway resistance in response to methacholine. The class given is in vivo. As to the method: OVA sensitized/challenged asthma model Mice were sensitized and challenged with ovalbumin (OVA) or normal saline. […] On days 21, 22 and 23, the mice were challenged with 1% OVA in saline (0.01 g/mL) for 20 min via. a nebulizer (PART Turbo boy). […] In vivo airway responsiveness to methacholine (Mch) was assessed on day 28 in conscious, freely moving, spontaneously breathing mice by a whole-body plethysmography (Buxco Electronics Inc.). […] Before Mch challenge, a 20 μL drug aerosol or saline was given to the mice because of the short-acting bronchodilating effect of terbutaline. The degree of bronchoconstriction was expressed as enhanced pause (Penh), a calculated dimensionless value that correlates with measurement of airway resistance, impedance, and intrapleural pressure. […] Methods used were similar as mentioned above. Nebulized aerosol of saline, Methacholine 2 mg/ml (low dose) or 10 mg/ml (high dose) were given via inhalation to OVA induced asthma mice.

The test system of assay [2] is LPS-induced RAW264.7 cells. Briefly: Seahorse analysis of OCR and ECAR. The class given is cell-based. Conditions: LPS-treated cells. As to the method:
as §1
Macrophage activation elicited different metabolic profiles. LPS-induced macrophages adopted glycolytic metabolic profiles. This invention disclosed a β2 adrenergic receptor mediated Warburg metabolism (aerobic glycolysis) of in LPS treated macrophages. The OCR and ECAR were measured using an extracellular flux analyzer. […] ECAR is a measurement extracellular acidification rate, an indication of cellular glycolytic rate.

The subject of assay [3] is macrophages from the peritoneal fluid. Briefly: LPS-induced proliferation and polarization of macrophages from the peritoneal fluid (sepsis). The assay is classed as in vivo. The source says: Macrophage activation and proliferation was considered to be the key step of initiation and development of sepsis. In one embodiment, LPS (PAMPs from bacteria) induced a proliferation and polarization of macrophages from the peritoneal fluid. […] These inhibitory effects can be blocked by using specific β2-recepter blocker.

“Also recorded” adds a separate entry of the source.

With `CC(C)(C)NC[C@H](O)c1ccc(O)c(CO)c1` [R-salbutamol, (R)-Salbutamol], in assay [1] (LPS-induced cells), the “production/levels of ROS (in words)” value is listed as “significantly decreased”. For the same molecule, in assay [1] (pretreated before LPS, LPS increased 7.30-fold), the “decrease of the level of DCF (ROS)” value came to 3.38 fold. In the assay with OVA induced asthma mice, the “increase in airway resistant in response to methacholine (in words)” value was “significantly diminished”. Moreover, the “increase in airway resistance after treatment” value in the assay on OVA induced asthma mice (response to methacholine, OVA + Saline 445%) is 180%. Besides, the “ECAR, aerobic glycolysis” value in assay [2] was “inhibited the aerobic glycolysis; also recorded: significantly reduced aerobic glycolysis”. In addition, in assay [3] (LPS sepsis), the “number of macrophages from the peritoneal fluid” value was “significantly reduced toward normal level”. Also, the “polarized M1 macrophages or M2 macrophages” value in assay [3] (in comparison of sepsis condition) was “significant reduction”.
